Test results: PMC5909127, “Optimization of a “bump-and-hole” approach to allele-selective BET bromodomain inhibition” (Chemical Science, 2018)

Tests used:
[1] = target: WT BET bromodomains (BD1 and BD2 of BRD2, BRD3 and BRD4); assay: competitive AlphaLISA (Bio-JQ1 displacement); assay type: binding, human; conditions: mean and SD of all somatic bromodomains; active enantiomer concentration
[2] = system: L/V BET bromodomains (BD1 and BD2 of BRD2, BRD3 and BRD4); assay: competitive AlphaLISA (Bio-JQ1 displacement); assay type: binding, human; conditions: L/V minus WT
[3] = target: T1, BRD2 BD1 L/V (Homo sapiens, UniProt P25440, L110V); assay: competitive AlphaLISA; assay type: binding
[4] = target: T2, BRD2 BD2 WT (Homo sapiens, UniProt P25440); assay: competitive AlphaLISA; assay type: binding
[5] = target: T3, BRD2 BD2 L/V (Homo sapiens, UniProt P25440, L383V); assay: competitive AlphaLISA; assay type: binding
[6] = target: T4, BRD3 BD1 WT (Homo sapiens, UniProt Q15059); assay: competitive AlphaLISA; assay type: binding
[7] = target: T5, BRD3 BD1 L/V (Homo sapiens, UniProt Q15059, L70V); assay: competitive AlphaLISA; assay type: binding
[8] = target: T6, BRD3 BD2 WT (Homo sapiens, UniProt Q15059); assay: competitive AlphaLISA; assay type: binding
[9] = target: T7, BRD3 BD2 L/V (Homo sapiens, UniProt Q15059, L345V); assay: competitive AlphaLISA; assay type: binding
[10] = target: T8, BRD4 BD1 WT (Homo sapiens, UniProt O60885); assay: competitive AlphaLISA; assay type: binding; conditions: AlphaLISA pIC50 Value BRD4 BD1 WT
[11] = target: T9, BRD4 BD1 L/V (Homo sapiens, UniProt O60885, L94V); assay: competitive AlphaLISA; assay type: binding; conditions: AlphaLISA pIC50 Value BRD4 BD1 L/V
[12] = target: T10, BRD4 BD2 L/V (Homo sapiens, UniProt O60885, L387V); assay: competitive AlphaLISA; assay type: binding
[13] = target: BRDT BD1 WT (Homo sapiens, UniProt Q58F21); assay: competitive AlphaLISA; assay type: binding
[14] = target: BRDT BD1 L/V (Homo sapiens, UniProt Q58F21, L63V); assay: competitive AlphaLISA; assay type: binding
[15] = target: BRDT BD2 WT (Homo sapiens, UniProt Q58F21); assay: competitive AlphaLISA; assay type: binding
[16] = target: BRD2 BD1 WT (Homo sapiens, UniProt P25440); assay: ITC; assay type: binding; conditions: ITC
[17] = target: T1, BRD2 BD1 L/V; assay: ITC; assay type: binding
[18] = target: T2, BRD2 BD2 WT; assay: ITC; assay type: binding
[19] = target: T3, BRD2 BD2 L/V; assay: ITC; assay type: binding
[20] = target: T4, BRD3 BD1 WT; assay: ITC; assay type: binding
[21] = target: T5, BRD3 BD1 L/V; assay: ITC; assay type: binding
[22] = target: T6, BRD3 BD2 WT; assay: ITC; assay type: binding
[23] = target: T7, BRD3 BD2 L/V; assay: ITC; assay type: binding
[24] = target: T8, BRD4 BD1 WT; assay: ITC; assay type: binding
[25] = target: T9, BRD4 BD1 L/V; assay: ITC; assay type: binding; conditions: ITC
[26] = target: BRD4 BD2 WT (Homo sapiens, UniProt O60885); assay: ITC; assay type: binding
[27] = target: T10, BRD4 BD2 L/V; assay: ITC; assay type: binding
[28] = target: WT somatic BET bromodomains; assay: ITC; conditions: mean and SD of all somatic bromodomains
[29] = system: L/V somatic BET bromodomains; assay: ITC; conditions: L/V minus WT
[30] = in vitro; conditions: PAMPA, pH 7.4
[31] = Plasma Half-life; conditions: BALB/c, mouse, pH 7.4
[32] = Intrinsic Clearance; conditions: mouse liver microsomes
[33] = target: BRD2: WT/WT (Homo sapiens, UniProt P25440); assay: ITC, BRD2 tandem construct
[34] = target: BRD2: LV/WT (Homo sapiens, UniProt P25440, L110V); assay: ITC, BRD2 tandem construct
[35] = target: BRD2: WT/LV (Homo sapiens, UniProt P25440, L383V); assay: ITC, BRD2 tandem construct
[36] = target: BRD2: LV/LV (Homo sapiens, UniProt P25440, L110V/L383V); assay: ITC, BRD2 tandem construct
Chain of BRD2: LV/LV (P25440 73-455 L110V/L383V limits assumed): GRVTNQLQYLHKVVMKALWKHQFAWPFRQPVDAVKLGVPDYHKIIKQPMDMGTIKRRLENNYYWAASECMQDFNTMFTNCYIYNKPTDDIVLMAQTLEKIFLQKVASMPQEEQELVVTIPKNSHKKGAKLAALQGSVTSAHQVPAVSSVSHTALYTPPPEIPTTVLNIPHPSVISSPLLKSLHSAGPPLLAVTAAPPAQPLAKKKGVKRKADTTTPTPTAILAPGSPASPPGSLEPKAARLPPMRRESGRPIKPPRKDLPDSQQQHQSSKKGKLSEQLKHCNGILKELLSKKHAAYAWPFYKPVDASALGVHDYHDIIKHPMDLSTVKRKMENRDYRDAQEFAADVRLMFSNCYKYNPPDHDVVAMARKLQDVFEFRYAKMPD

T3 sequence (P25440 344-455 L383V): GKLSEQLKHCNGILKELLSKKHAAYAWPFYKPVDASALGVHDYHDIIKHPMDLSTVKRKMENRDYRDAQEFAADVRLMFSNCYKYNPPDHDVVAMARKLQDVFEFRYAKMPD
T4 sequence (Q15059 24-144): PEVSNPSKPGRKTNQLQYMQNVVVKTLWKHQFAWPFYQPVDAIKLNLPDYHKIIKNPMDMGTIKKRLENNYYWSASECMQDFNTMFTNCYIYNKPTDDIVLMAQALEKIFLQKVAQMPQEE
T7 sequence (Q15059 306-416 L345V limits assumed): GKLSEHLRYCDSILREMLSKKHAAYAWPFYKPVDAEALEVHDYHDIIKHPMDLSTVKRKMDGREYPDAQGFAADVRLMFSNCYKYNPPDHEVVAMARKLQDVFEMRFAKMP
T5 sequence (Q15059 24-144 L70V limits assumed): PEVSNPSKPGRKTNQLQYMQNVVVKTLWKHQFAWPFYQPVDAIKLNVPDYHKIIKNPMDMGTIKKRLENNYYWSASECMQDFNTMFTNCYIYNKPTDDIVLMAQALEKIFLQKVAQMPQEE
T2 sequence (P25440 344-455): as the sequence (P25440 344-455 L383V) above, with V40L counted along it
T1 sequence (P25440 71-176 L110V limits assumed): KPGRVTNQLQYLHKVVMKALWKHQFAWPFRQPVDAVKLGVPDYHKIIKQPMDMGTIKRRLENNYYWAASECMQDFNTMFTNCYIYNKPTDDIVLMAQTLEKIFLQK
T6 sequence (Q15059 306-416): as the sequence (Q15059 306-416 L345V limits assumed) above, with V40L counted along it
Chain of BRD2 BD1 WT (P25440 71-176): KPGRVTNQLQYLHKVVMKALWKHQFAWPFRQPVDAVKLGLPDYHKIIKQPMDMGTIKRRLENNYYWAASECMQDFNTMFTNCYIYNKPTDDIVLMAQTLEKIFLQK
Chain of BRD2: WT/LV (P25440 73-455 L383V): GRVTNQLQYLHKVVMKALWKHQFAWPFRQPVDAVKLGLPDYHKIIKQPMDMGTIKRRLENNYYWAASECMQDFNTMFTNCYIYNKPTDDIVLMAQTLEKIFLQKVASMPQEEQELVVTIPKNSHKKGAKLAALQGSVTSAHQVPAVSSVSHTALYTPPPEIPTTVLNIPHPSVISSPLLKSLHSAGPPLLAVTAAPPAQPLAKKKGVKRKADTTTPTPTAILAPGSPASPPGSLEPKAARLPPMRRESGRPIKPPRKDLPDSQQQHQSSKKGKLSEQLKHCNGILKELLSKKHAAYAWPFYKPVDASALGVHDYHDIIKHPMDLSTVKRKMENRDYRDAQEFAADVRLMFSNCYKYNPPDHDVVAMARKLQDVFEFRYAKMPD
Chain of BRD2: WT/WT (P25440 73-455): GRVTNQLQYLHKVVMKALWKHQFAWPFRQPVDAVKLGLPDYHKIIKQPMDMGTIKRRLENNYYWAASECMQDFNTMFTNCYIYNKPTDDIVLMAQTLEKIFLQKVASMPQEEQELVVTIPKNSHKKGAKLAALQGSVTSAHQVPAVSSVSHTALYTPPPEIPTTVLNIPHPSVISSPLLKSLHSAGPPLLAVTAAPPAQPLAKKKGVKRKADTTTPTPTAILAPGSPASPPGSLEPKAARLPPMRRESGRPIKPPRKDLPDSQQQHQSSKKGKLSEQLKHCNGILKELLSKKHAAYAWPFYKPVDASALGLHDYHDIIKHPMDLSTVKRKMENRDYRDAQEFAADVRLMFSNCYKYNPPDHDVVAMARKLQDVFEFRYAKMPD
Chain of BRD2: LV/WT (P25440 73-455 L110V limits assumed): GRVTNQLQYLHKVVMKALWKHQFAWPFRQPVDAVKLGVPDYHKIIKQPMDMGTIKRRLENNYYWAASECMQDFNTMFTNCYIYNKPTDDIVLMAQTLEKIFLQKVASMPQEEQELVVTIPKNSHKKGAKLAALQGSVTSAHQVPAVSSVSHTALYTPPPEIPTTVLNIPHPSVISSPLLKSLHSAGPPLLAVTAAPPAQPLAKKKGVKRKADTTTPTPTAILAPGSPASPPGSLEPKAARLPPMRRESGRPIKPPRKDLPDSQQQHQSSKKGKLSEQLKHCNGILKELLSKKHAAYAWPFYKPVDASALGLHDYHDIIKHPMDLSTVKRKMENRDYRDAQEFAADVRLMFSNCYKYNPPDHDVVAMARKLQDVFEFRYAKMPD

With `CC[C@@H](C(=O)OC)[C@@H]1N=C(c2ccc(Cl)cc2)c2cc(OC)ccc2-n2c(C)nnc21` (relative stereo) [Compound 4] as the compound, how does the “AlphaLISA pIC50 ± SD WT” value [1] read?
The value was 5.0 ± 0.1.

What about the “AlphaLISA pIC50 ± SD Δ” value [2] of the same compound?
Its value is 1.7 ± 0.2.

And the IC50 [3]?
The IC50 was 0.316 µM.

And the IC50 [4]?
The IC50 was 10 µM.

And the IC50 [5]?
Its IC50 is 0.158 µM.

And the IC50 [6]?
The IC50 was 6.31 µM.

And the IC50 [7]?
The IC50 was 0.1 µM.

What about the IC50 [8] of the same compound?
The IC50 was 10 µM.

What about the IC50 [9] of the same compound?
Its IC50 is 0.1 µM.

And the IC50 [10]?
The IC50 was 7.94 µM.

And the IC50 [11]?
The IC50 was 0.251 µM.

What about the IC50 [12] of the same compound?
The IC50 was 0.251 µM.

And the IC50 [13]?
Its IC50 is 15.8 µM.

What about the IC50 [14] of the same compound?
The IC50 was 0.501 µM.

What about the IC50 [15] of the same compound?
The IC50 was 15.8 µM.

And the “ΔH BRD2 BD1 WT” value [16]?
The value was -22.2 kJ/mol.

What about the Kd [17] of the same compound?
The Kd was 0.24 µM.

And the “ΔH BRD2 BD1 L/V” value ([17]; ITC)?
The value was -52.7 kJ/mol.

What about the Kd [18] of the same compound?
Its Kd is 3.3 µM.

And the “ΔH BRD2 BD2 WT” value ([18]; ITC)?
Its value is -5.02 kJ/mol.

And the “N BRD2 BD2 WT” value ([18]; ITC stoichiometry)?
Its value is 0.91.

What about the Kd [19] of the same compound?
Its Kd is 0.05 µM.

What about the “ΔH BRD2 BD2 L/V” value ([19]; ITC) of the same compound?
Its value is -35.6 kJ/mol.

What about the Kd [20] of the same compound?
The Kd was 3.3 µM.

And the “ΔH BRD3 BD1 WT” value ([20]; ITC)?
Its value is -20.5 kJ/mol.

And the “N BRD3 BD1 WT” value ([20]; ITC stoichiometry)?
The value was 0.81.

What about the Kd [21] of the same compound?
Its Kd is 0.08 µM.

And the “ΔH BRD3 BD1 L/V” value ([21]; ITC)?
Its value is -59 kJ/mol.

What about the “ΔH BRD3 BD2 WT” value ([22]; ITC) of the same compound?
The value was -15.9 kJ/mol.

What about the “N BRD3 BD2 WT” value ([22]; ITC stoichiometry) of the same compound?
Its value is 0.85.

What about the Kd [23] of the same compound?
The Kd was 0.1 µM.

And the “ΔH BRD3 BD2 L/V” value ([23]; ITC)?
Its value is -39.7 kJ/mol.

What about the Kd [24] of the same compound?
Its Kd is 2.5 µM.

What about the “ΔH BRD4 BD1 WT” value ([24]; ITC) of the same compound?
The value was -10.9 kJ/mol.

What about the “N BRD4 BD1 WT” value ([24]; ITC stoichiometry) of the same compound?
The value was 0.99.

What about the “ΔH BRD4 BD1 L/V” value [25] of the same compound?
The value was -43.1 kJ/mol.

What about the Kd ([25]; Kd BRD4 BD1 L/V, 30°C) of the same compound?
Its Kd is 0.16 µM.

And the Kd [26]?
Its Kd is 35 µM.

And the “ΔH BRD4 BD2 WT” value ([26]; ITC)?
Its value is -14.2 kJ/mol.

What about the Kd [27] of the same compound?
Its Kd is 0.33 µM.

What about the “ΔH BRD4 BD2 L/V” value ([27]; ITC) of the same compound?
Its value is -33.1 kJ/mol.

And the “ITC pKd ± SD WT” value [28]?
The value was 5.1 ± 0.5.

And the “ITC pKd ± SD Δ” value [29]?
The value was 1.8 ± 0.4.

And the Papp [30]?
Its Papp is 153 nm/s.

And the half-life at 50 µM [31]?
The half-life at 50 µM was > 3 h.

What about the CL int [32] of the same compound?
Its CL int is 1.5 ml min^–1 g^–1.

And the Kd [33]?
Its Kd is 3.8 ± 1.1 µM.

And the Kd [34]?
Its Kd is 0.57 ± 0.05 µM.

What about the Kd [35] of the same compound?
The Kd was 0.62 ± 0.11 µM.

And the Kd [36]?
Its Kd is 0.14 ± 0.01 µM.
